# Measured values published in ChEMBL document CHEMBL1201862, “PubChem BioAssay data set” (2004).
# Calls of active or inactive are those of the source.
# Key:
# [1] = test system: HEK293; experiment: SAR analysis of compounds that are cytotoxic to HEK293 - Set 3. [Related pubchem assays (depositor defined):AID1575, AID1578, AID1848, AID1849, AID2001, AID2333, AID2334, AID2335, AID2337, AID2469]; format: functional, cell-based; details: Homo sapiens
# [2] = target: Tumor necrosis factor (Homo sapiens, UniProt P01375); experiment: analog potency on TNFa NF-kB signaling – cell-based, set 3, SAR follow-up (AID 2801); format: functional
# Tumor necrosis factor, sequence (P01375 whole entry, the tested form may be a part): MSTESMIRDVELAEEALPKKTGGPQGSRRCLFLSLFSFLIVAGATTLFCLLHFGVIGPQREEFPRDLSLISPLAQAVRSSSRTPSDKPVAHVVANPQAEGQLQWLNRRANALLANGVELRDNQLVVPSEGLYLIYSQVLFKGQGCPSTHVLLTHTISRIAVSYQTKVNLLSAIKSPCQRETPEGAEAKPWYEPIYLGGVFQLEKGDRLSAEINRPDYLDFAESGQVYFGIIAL
# [3] = target: Nucleotide-binding oligomerization domain-containing protein 2 (Homo sapiens, UniProt Q9HC29); experiment: inhibition of MDP-driven NOD2 NF-kB reporter – cell-based, set 3, SAR follow-up (AID 2799); format: functional
# Nucleotide-binding oligomerization domain-containing protein 2, sequence (Q9HC29 whole entry, the tested form may be a part): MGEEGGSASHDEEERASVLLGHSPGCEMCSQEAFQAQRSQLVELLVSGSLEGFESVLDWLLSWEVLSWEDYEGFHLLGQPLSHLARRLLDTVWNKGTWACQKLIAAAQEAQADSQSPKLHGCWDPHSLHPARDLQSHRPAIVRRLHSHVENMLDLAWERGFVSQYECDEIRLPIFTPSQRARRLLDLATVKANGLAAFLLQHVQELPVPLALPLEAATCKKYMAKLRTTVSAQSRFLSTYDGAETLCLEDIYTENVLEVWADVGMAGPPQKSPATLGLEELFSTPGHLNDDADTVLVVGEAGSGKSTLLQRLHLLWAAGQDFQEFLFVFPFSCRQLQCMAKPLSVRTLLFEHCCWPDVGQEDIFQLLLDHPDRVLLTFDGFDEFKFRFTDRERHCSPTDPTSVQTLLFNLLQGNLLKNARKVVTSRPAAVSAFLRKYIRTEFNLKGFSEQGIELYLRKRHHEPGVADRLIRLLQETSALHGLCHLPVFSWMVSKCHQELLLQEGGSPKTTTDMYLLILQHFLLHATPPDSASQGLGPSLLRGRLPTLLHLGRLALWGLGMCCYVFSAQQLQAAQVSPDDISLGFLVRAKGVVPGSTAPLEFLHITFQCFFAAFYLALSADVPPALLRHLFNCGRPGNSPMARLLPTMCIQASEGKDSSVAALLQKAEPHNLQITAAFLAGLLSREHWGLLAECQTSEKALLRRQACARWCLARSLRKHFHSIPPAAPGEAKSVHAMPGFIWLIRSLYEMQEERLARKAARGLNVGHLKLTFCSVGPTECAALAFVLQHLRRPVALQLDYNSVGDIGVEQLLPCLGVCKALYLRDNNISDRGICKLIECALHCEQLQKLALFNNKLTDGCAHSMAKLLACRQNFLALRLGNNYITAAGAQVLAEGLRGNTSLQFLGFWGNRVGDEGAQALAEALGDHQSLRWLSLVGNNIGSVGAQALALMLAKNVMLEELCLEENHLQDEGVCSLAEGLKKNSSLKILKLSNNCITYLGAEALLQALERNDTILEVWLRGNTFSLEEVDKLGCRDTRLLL
# [4] = target: T1, Nucleotide-binding oligomerization domain-containing protein 1 (Homo sapiens, UniProt Q9Y239); experiment: SAR analysis of compounds that inhibit NOD1 - Set 3. [Related pubchem assays (depositor defined):AID1566, AID1575, AID1578, AID1849, AID1852, AID2333, AID2335, AID2466]; format: functional
# T1 sequence (Q9Y239 whole entry): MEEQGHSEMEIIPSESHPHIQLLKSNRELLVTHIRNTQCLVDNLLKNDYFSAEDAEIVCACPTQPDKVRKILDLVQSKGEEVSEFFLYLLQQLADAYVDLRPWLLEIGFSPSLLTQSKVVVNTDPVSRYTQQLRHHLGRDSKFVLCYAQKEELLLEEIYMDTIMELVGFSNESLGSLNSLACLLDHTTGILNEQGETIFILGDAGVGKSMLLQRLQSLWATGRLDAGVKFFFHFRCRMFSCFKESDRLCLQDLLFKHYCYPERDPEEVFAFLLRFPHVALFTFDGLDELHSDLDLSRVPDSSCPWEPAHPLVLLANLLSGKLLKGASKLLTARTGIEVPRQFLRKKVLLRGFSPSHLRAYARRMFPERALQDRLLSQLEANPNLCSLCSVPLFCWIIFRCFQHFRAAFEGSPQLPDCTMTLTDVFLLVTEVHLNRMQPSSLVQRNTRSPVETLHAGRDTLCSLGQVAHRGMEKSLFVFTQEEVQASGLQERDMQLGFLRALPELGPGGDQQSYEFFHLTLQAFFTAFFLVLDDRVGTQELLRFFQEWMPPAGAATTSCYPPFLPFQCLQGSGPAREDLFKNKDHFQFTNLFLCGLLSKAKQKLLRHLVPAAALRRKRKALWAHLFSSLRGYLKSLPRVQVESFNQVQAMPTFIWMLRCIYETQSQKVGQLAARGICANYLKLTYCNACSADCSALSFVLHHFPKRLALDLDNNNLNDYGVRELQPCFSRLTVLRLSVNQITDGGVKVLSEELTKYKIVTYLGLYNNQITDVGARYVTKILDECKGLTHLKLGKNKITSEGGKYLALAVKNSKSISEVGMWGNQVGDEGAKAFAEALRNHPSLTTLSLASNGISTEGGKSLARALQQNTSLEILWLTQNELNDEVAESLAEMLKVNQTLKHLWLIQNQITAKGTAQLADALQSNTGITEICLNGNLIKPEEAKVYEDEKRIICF
# [5] = target: T2, G-protein coupled receptor 55 (Homo sapiens, UniProt Q9Y2T6); experiment: blockade of LPI-induced GPR55 arrestin translocation – imaging, U2OS, beta-arrestin-GFP, LPI agonist, set 2, SAR follow-up (AID 2820); format: functional
# T2 sequence (Q9Y2T6 whole entry): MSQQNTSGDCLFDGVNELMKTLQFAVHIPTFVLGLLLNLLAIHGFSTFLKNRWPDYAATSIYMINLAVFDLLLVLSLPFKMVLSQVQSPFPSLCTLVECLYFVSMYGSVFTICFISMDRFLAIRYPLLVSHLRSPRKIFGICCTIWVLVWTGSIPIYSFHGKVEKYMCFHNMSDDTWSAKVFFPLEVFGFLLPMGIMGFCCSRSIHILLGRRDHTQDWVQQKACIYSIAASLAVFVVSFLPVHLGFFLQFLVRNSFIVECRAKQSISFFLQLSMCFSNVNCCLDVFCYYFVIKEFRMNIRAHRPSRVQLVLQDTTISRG
# [6] = target: T3, Cannabinoid receptor 1 (Homo sapiens, UniProt P21554); experiment: SAR analysis of agonists of the Cannabinoid Receptor 1 using an Image-Based Assay - Set 2. [Related pubchem assays (depositor defined):AID2013, AID2026]; format: functional
# T3 sequence (P21554 whole entry): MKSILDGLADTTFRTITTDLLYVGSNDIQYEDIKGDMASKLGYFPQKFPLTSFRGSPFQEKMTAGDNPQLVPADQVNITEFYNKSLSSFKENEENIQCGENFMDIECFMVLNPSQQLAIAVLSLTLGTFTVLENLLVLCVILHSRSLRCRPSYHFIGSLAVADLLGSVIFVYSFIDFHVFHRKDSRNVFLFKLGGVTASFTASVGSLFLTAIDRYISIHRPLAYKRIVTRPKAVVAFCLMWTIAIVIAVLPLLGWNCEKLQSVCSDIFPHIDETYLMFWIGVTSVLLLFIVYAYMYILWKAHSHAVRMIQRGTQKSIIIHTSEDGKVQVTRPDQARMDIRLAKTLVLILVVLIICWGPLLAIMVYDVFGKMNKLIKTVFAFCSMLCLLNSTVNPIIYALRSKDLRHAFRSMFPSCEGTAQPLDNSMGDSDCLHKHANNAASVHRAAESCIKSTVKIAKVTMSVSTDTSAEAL
# [7] = target: T4, G-protein coupled receptor 35 (Homo sapiens, UniProt Q9HC97); experiment: SAR analysis of Agonists of the GPR35 Receptor using an Image-Based Assay - Set 2. [Related pubchem assays (depositor defined):AID2013, AID2026]; format: functional
# T4 sequence (Q9HC97 whole entry): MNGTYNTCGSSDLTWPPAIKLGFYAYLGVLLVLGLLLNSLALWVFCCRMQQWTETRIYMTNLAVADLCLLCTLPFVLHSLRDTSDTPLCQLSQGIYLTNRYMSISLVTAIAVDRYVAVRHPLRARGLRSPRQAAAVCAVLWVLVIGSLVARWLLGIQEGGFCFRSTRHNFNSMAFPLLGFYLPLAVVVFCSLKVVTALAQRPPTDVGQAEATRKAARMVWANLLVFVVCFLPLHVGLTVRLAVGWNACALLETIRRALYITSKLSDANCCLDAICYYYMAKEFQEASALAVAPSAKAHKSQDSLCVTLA
# [8] = target: T5, Cannabinoid receptor 2 (Homo sapiens, UniProt P34972); experiment: SAR analysis of antagonists of the Cannabinoid Receptor 2 using an Image-Based Assay. [Related pubchem assays (depositor defined):AID2013, AID2026]; format: functional
# T5 sequence (P34972 whole entry): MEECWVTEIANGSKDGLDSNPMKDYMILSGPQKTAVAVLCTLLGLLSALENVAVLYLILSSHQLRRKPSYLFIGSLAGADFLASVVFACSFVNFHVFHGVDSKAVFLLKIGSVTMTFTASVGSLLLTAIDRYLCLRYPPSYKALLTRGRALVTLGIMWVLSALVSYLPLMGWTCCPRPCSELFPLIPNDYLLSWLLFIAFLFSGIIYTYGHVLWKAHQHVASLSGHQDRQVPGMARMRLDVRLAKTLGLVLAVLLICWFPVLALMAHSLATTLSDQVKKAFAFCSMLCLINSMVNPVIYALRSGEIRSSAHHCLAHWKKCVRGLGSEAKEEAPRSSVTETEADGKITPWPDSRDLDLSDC
# [9] = target: T5, Cannabinoid receptor 2; experiment: SAR analysis of agonists of the Cannabinoid Receptor 2 using an Image-Based Assay. [Related pubchem assays (depositor defined):AID2013, AID2026]; format: functional
# [10] = target: T4, G-protein coupled receptor 35; experiment: SAR analysis of Antagonists of the GPR35 Receptor using an Image-Based Assay - Set 3. [Related pubchem assays (depositor defined):AID2013, AID2026]; format: functional
# [11] = target: T2, G-protein coupled receptor 55; experiment: inhibition of LPI-stimulated GPR55 beta-arrestin translocation – imaging, U2OS, beta-arrestin-GFP, LPI agonist, primary screen (AID 2013); format: functional;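 further: antagonist potency measured as reduced agonist-driven arrestin aggregation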
# [12] = target: T3, Cannabinoid receptor 1; experiment: SAR analysis of antagonists of the Cannabinoid Receptor 1 using an Image-Based Assay - Set 2. [Related pubchem assays (depositor defined):AID2013, AID2026]; format: functional
# [13] = target: T6, Alkaline phosphatase, tissue-nonspecific isozyme (Homo sapiens, UniProt P05186); experiment: activation of tissue-nonspecific alkaline phosphatase – biochemical, TNAP isozyme, mouse IAP uHTS hits, selectivity assay for mouse IAP activator project, dose response (AID 488880); format: functional
# T6 sequence (P05186 whole entry): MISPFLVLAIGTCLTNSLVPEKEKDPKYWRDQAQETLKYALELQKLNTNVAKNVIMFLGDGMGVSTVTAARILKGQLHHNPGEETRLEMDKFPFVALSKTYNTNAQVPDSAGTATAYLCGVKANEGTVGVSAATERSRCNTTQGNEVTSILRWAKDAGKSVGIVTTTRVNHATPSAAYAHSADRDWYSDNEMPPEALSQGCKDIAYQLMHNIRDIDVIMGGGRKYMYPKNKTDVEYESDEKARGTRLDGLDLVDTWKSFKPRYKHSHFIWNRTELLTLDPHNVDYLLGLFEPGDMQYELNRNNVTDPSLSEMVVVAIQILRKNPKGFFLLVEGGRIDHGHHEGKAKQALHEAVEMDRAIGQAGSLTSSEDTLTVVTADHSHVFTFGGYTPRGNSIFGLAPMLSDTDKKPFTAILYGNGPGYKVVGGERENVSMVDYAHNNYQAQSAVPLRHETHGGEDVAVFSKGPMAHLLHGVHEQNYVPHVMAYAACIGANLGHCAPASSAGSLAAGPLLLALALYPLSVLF
# [14] = target: T7, Heat shock factor protein 1 (Mus musculus, UniProt P38532); experiment: enhancement of HSF1-driven luciferase signal – cell-based, NIH3T3, luminescence, dose retest, confirmation (AID 435004); format: functional;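 further: stress induced by proteasome inhibitor MG132 added 30 min after compound; luciferase reporter driven by HSF1 response element in NIH3T3 cells; actives raise luminescence as potentiators of the MG132 stress response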
# T7 sequence (P38532 whole entry): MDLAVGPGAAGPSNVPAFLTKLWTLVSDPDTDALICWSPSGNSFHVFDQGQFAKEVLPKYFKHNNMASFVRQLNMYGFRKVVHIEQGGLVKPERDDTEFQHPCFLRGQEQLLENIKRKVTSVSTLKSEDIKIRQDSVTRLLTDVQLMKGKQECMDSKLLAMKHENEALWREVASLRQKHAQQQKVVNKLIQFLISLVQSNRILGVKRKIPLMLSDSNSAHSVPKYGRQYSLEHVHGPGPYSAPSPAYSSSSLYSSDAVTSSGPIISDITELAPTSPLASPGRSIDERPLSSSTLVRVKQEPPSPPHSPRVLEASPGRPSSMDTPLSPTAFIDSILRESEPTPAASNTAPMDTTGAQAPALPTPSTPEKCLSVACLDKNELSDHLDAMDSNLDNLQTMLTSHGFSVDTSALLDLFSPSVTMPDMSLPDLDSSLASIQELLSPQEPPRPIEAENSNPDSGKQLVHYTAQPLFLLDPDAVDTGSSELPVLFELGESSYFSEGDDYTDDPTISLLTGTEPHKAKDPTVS
# [15] = target: Intestinal-type alkaline phosphatase (Mus musculus, UniProt P24822); experiment: mouse intestinal alkaline phosphatase activators, dose response, biochemical, luminescence, uHTS hits (AID 488783); format: functional
# Intestinal-type alkaline phosphatase (Mus musculus, UniProt P24822), sequence (P24822 whole entry, the tested form may be a part): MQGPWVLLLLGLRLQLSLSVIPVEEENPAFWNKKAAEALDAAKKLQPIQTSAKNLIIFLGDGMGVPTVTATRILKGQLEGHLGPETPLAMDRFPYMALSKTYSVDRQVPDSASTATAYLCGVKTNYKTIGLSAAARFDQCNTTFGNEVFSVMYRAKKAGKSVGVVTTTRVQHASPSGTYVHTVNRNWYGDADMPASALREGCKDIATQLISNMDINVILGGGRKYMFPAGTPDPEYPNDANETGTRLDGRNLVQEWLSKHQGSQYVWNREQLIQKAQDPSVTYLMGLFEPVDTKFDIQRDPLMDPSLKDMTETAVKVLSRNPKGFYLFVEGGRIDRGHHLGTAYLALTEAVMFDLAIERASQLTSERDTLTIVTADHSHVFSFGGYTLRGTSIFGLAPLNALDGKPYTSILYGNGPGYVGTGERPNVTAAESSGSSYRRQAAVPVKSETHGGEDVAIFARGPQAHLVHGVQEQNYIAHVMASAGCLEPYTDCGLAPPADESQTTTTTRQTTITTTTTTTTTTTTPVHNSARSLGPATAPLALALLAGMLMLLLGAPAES
# [16] = target: T8, RNA-binding protein pos-1 (Caenorhabditis elegans, UniProt G5EF15); experiment: disruptors of C. elegans POS-1 RNA interaction – biochemical, fluorescence polarization, dose response (AID 1964);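 further: purified POS-1 fused to maltose binding protein made in E. coli; potency of compounds blocking POS-1 binding to fluorescent RNA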
# T8 sequence (G5EF15 whole entry): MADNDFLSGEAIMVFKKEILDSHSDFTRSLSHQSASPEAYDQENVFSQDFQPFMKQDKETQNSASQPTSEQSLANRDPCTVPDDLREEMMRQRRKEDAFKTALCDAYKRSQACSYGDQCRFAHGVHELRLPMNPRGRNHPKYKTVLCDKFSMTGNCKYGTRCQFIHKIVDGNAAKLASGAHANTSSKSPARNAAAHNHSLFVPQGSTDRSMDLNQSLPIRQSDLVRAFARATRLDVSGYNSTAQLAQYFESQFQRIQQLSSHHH
# [17] = target: T9, Rac GTPase-activating protein 1 (Homo sapiens, UniProt Q9H0H5); experiment: blockers of MgcRacGAP-driven Rac1 GTP hydrolysis – biochemical, ADP Hunter fluorescence, primary and confirmatory, confirmation (AID 624330); format: functional
# T9 sequence (Q9H0H5 whole entry): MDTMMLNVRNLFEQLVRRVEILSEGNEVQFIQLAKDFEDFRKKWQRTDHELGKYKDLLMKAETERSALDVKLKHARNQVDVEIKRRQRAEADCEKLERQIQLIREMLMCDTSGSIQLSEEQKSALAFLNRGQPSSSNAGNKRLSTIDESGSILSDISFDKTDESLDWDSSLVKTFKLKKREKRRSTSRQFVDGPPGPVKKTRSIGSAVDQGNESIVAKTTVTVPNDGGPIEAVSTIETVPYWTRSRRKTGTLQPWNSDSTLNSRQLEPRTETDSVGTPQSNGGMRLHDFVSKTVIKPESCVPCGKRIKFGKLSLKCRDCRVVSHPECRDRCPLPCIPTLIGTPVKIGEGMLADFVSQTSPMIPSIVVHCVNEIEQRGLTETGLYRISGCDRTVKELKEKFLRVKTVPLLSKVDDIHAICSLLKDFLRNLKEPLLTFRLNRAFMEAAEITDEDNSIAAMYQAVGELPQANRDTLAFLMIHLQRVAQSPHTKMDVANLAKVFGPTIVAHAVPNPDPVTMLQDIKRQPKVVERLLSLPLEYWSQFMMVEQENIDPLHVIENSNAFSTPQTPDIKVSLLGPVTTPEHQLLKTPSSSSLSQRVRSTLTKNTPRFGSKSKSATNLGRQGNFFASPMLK
# [18] = target: Intestinal-type alkaline phosphatase (Homo sapiens, UniProt P09923); experiment: activation of human intestinal alkaline phosphatase – biochemical, dose response (AID 488873); format: functional
# Intestinal-type alkaline phosphatase (Homo sapiens, UniProt P09923), sequence (P09923 whole entry): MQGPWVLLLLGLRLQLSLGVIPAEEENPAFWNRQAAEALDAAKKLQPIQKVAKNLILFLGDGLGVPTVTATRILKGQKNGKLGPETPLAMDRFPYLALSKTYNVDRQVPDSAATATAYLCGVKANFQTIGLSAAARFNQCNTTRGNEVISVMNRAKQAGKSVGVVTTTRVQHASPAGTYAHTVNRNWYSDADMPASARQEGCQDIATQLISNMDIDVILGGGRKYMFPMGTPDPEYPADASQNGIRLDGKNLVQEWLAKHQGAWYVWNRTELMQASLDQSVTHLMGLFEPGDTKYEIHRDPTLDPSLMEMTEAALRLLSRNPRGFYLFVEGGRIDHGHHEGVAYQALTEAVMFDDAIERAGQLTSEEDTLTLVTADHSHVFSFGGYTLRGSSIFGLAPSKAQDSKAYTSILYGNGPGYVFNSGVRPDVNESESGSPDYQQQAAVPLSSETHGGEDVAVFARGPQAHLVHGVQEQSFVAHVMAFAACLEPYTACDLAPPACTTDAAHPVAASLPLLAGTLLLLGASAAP
# [19] = target: T10, Zinc finger protein mex-5 (Caenorhabditis elegans, UniProt Q9XUB2); experiment: potency of MEX-5 RNA-binding blockers – biochemical, C. elegans, fluorescence polarization, dose response (AID 1960)
# T10 sequence (Q9XUB2 whole entry): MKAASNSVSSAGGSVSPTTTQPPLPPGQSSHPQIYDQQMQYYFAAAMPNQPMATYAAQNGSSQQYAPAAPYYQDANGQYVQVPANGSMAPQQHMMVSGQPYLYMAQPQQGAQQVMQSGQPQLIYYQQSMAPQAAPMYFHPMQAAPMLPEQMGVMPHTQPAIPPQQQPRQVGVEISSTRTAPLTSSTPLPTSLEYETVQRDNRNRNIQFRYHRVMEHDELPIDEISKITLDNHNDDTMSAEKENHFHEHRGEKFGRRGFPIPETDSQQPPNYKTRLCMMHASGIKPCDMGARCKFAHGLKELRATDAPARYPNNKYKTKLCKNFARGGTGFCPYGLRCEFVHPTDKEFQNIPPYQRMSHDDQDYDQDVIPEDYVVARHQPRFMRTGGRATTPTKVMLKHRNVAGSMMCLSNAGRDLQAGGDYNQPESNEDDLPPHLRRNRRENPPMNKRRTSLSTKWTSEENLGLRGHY
structure (smiles),measurement,setting,value
COc1ccc(-c2cc(N)n(S(=O)(=O)c3cccc([N+](=O)[O-])c3)n2)cc1OC,IC50,[1],> 20 µM (inactive)
same,IC50,[2],> 20 µM (inactive)
same,IC50,[3],> 20 µM (inactive)
same,IC50,[4],> 20 µM (inactive)
COc1ccc(-c2c(-c3ccc(O)cc3O)n[nH]c2C(F)(F)F)cc1,IC50,[5],1.06 µM (active)
same,EC50,[6],> 32 µM (inactive)
same,EC50,[7],> 32 µM (inactive)
same,IC50,[8],> 32 µM (inactive)
same,EC50,[9],30.2 µM (inactive)
same,IC50,[10],> 32 µM (inactive)
same,IC50,[11],1.8 µM (active)
same,IC50,[12],8.82 µM (active)
Cc1cc(O)nc(N/N=C/c2ccc(O)c(O)c2)n1,EC50,[13],56.1 µM (active)
same,EC50,[14],> 260 µM (inactive)
same,EC50,[15],58.7 µM (active)
same,EC50,[16],99.3 µM (active)
same,IC50,[17],21.4 µM (active)
same,EC50,[18],66.2 µM (active)
same,EC50,[19],125 µM (active)
